Reference: patent publication US20230111310A1, “CARBOXYLIC ACID DERIVATIVE-SUBSTITUTED IMINO ARYL COMPOUND, PREPARATION METHOD THEREFOR, HERBICIDAL COMPOSITION AND USE THEREOF” (Qingdao Kingagroot Chemical Compound Co., Ltd., priority 2020, published 2023)

Tests used:
Test in all cases: Weeding effect in post-emergence stage
Type in all cases: in vivo
Conditions in all cases: fresh weight control rate level
Abutilon theophrasti = tested on: Abutilon theophrasti
How it was run: (§1)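 Seeds are sown in soil-filled pots under 0.5-2 cm soil and grown 2 weeks in greenhouse. Plants at 2-3 leaves are sprayed with compound (acetone, Tween 80, 1.5 liter/ha methyl oleate EC, water) at 7.5 to 500 g/ha. Damage is rated 3 weeks later, averaging three repeats.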

Alopecurus japonicus = tested on: Alopecurus japonicus
How it was run: as §1

Digitaria sanguinalis = tested on: Digitaria sanguinalis
How it was run: as §1

Eleusine indica = tested on: Eleusine indica
How it was run: as §1

Setaria viridis = tested on: Setaria viridis
How it was run: as §1

Echinochloa crusgalli = tested on: Echinochloa crusgalli
How it was run: as §1

Compound	Weeding effect in post-emergence stage, Abutilon theophrasti (level) (Abutilon theophrasti; Dose 15 g/ha)	Weeding effect in post-emergence stage, Alopecurus japonicus (level) (Alopecurus japonicus; Dose 15 g/ha)	Weeding effect in post-emergence stage, Digitaria sanguinalis (level) (Digitaria sanguinalis; Dose 15 g/ha)	Weeding effect in post-emergence stage, Eleusine indica (level) (Eleusine indica; Dose 15 g/ha)	Weeding effect in post-emergence stage, Setaria viridis (level) (Setaria viridis; Dose 15 g/ha)	Weeding effect in post-emergence stage, Echinochloa crusgalli (level) (Echinochloa crusgalli; Dose 15 g/ha)	Weeding effect in post-emergence stage, Abutilon theophrasti (level) (Abutilon theophrasti; Dose 30 g/ha)	Weeding effect in post-emergence stage, Alopecurus japonicus (level) (Alopecurus japonicus; Dose 30 g/ha)	Weeding effect in post-emergence stage, Digitaria sanguinalis (level) (Digitaria sanguinalis; Dose 30 g/ha)	Weeding effect in post-emergence stage, Eleusine indica (level) (Eleusine indica; Dose 30 g/ha)	Weeding effect in post-emergence stage, Setaria viridis (level) (Setaria viridis; Dose 30 g/ha)	Weeding effect in post-emergence stage, Echinochloa crusgalli (level) (Echinochloa crusgalli; Dose 30 g/ha)	other results
CCCSC(=O)[C@@H](C)O/N=C/c1cc(-n2c(=O)cc(C(F)(F)F)n(C)c2=O)c(F)cc1Cl [399(R)]	5 (Level 5: growth control rate is above 85%)	5 (Level 5: growth control rate is above 85%)	5 (Level 5: growth control rate is above 85%)	5 (Level 5: growth control rate is above 85%)	5 (Level 5: growth control rate is above 85%)	5 (Level 5: growth control rate is above 85%)	–	–	–	–	–	–	–
CC(C)SC(=O)[C@@H](C)O/N=C/c1cc(-n2c(=O)cc(C(F)(F)F)n(C)c2=O)c(F)cc1Cl [400(R)]	5 (Level 5: growth control rate is above 85%)	5 (Level 5: growth control rate is above 85%)	5 (Level 5: growth control rate is above 85%)	5 (Level 5: growth control rate is above 85%)	5 (Level 5: growth control rate is above 85%)	5 (Level 5: growth control rate is above 85%)	–	–	–	–	–	–	–
COC(=O)CSC(=O)[C@@H](C)O/N=C/c1cc(-n2c(=O)cc(C(F)(F)F)n(C)c2=O)c(F)cc1Cl [406(R)]	5 (Level 5: growth control rate is above 85%)	5 (Level 5: growth control rate is above 85%)	5 (Level 5: growth control rate is above 85%)	5 (Level 5: growth control rate is above 85%)	5 (Level 5: growth control rate is above 85%)	5 (Level 5: growth control rate is above 85%)	–	–	–	–	–	–	–
C[C@@H](O/N=C/c1cc(-n2c(=O)cc(C(F)(F)F)n(C)c2=O)c(F)cc1Cl)C(=O)SCc1ccccc1 [409(R)]	–	–	–	–	–	–	5 (Level 5: growth control rate is above 85%)	5 (Level 5: growth control rate is above 85%)	5 (Level 5: growth control rate is above 85%)	5 (Level 5: growth control rate is above 85%)	5 (Level 5: growth control rate is above 85%)	5 (Level 5: growth control rate is above 85%)	–
COC(=O)CCNC(=O)[C@@H](C)O/N=C/c1cc(-n2c(=O)cc(C(F)(F)F)n(C)c2=O)c(F)cc1Cl [416(R)]	5 (Level 5: growth control rate is above 85%)	5 (Level 5: growth control rate is above 85%)	5 (Level 5: growth control rate is above 85%)	5 (Level 5: growth control rate is above 85%)	5 (Level 5: growth control rate is above 85%)	5 (Level 5: growth control rate is above 85%)	–	–	–	–	–	–	–
CON(C)C(=O)[C@@H](C)O/N=C/c1cc(-n2c(=O)cc(C(F)(F)F)n(C)c2=O)c(F)cc1Cl [419(R)]	5 (Level 5: growth control rate is above 85%)	5 (Level 5: growth control rate is above 85%)	5 (Level 5: growth control rate is above 85%)	5 (Level 5: growth control rate is above 85%)	5 (Level 5: growth control rate is above 85%)	5 (Level 5: growth control rate is above 85%)	–	–	–	–	–	–	–
Cc1cc(C)n(C(=O)[C@@H](C)O/N=C/c2cc(-n3c(=O)cc(C(F)(F)F)n(C)c3=O)c(F)cc2Cl)n1 [424(R)]	–	–	–	–	–	–	5 (Level 5: growth control rate is above 85%)	5 (Level 5: growth control rate is above 85%)	5 (Level 5: growth control rate is above 85%)	5 (Level 5: growth control rate is above 85%)	5 (Level 5: growth control rate is above 85%)	5 (Level 5: growth control rate is above 85%)	–
CCn1c(C(F)(F)F)cc(=O)n(-c2cc(/C=N/O[C@H](C)C(=O)OC)c(Cl)cc2F)c1=O [426(R)]	–	–	–	–	–	–	–	–	–	–	–	–	Weeding effect in post-emergence stage, Abutilon theophrasti (level) (Abutilon theophrasti; Dose 250 g/ha): 5 (Level 5: growth control rate is above 85%); Weeding effect in post-emergence stage, Alopecurus japonicus (level) (Alopecurus japonicus; Dose 250 g/ha): 5 (Level 5: growth control rate is above 85%); Weeding effect in post-emergence stage, Digitaria sanguinalis (level) (Digitaria sanguinalis; Dose 250 g/ha): 5 (Level 5: growth control rate is above 85%); Weeding effect in post-emergence stage, Eleusine indica (level) (Eleusine indica; Dose 250 g/ha): 5 (Level 5: growth control rate is above 85%); Weeding effect in post-emergence stage, Setaria viridis (level) (Setaria viridis; Dose 250 g/ha): 5 (Level 5: growth control rate is above 85%); Weeding effect in post-emergence stage, Echinochloa crusgalli (level) (Echinochloa crusgalli; Dose 250 g/ha): 5 (Level 5: growth control rate is above 85%)
C[C@@H](O/N=C/c1cc(-n2c(=O)n(C)c(=S)n(C)c2=O)c(F)cc1Cl)C(=O)O [438(R)]	–	–	–	–	–	–	5 (Level 5: growth control rate is above 85%)	5 (Level 5: growth control rate is above 85%)	5 (Level 5: growth control rate is above 85%)	5 (Level 5: growth control rate is above 85%)	5 (Level 5: growth control rate is above 85%)	5 (Level 5: growth control rate is above 85%)	–
C[C@@H](O/N=C/c1cc(-n2c(=O)n(C)c(=S)n(C)c2=O)c(F)cc1Cl)C(=O)OCC(F)(F)F [439(R)]	–	–	–	–	–	–	5 (Level 5: growth control rate is above 85%)	5 (Level 5: growth control rate is above 85%)	5 (Level 5: growth control rate is above 85%)	5 (Level 5: growth control rate is above 85%)	5 (Level 5: growth control rate is above 85%)	5 (Level 5: growth control rate is above 85%)	–
C#CCCOC(=O)[C@@H](C)O/N=C/c1cc(-n2c(=O)cc(C(F)(F)F)n(C)c2=O)c(F)cc1Cl [442(R)]	5 (Level 5: growth control rate is above 85%)	5 (Level 5: growth control rate is above 85%)	5 (Level 5: growth control rate is above 85%)	5 (Level 5: growth control rate is above 85%)	5 (Level 5: growth control rate is above 85%)	5 (Level 5: growth control rate is above 85%)	–	–	–	–	–	–	–
CC(C#N)OC(=O)[C@@H](C)O/N=C/c1cc(-n2c(=O)cc(C(F)(F)F)n(C)c2=O)c(F)cc1Cl (stereo partly drawn) [443(R)]	5 (Level 5: growth control rate is above 85%)	5 (Level 5: growth control rate is above 85%)	5 (Level 5: growth control rate is above 85%)	5 (Level 5: growth control rate is above 85%)	5 (Level 5: growth control rate is above 85%)	5 (Level 5: growth control rate is above 85%)	–	–	–	–	–	–	–
CC(CC#N)OC(=O)[C@@H](C)O/N=C/c1cc(-n2c(=O)cc(C(F)(F)F)n(C)c2=O)c(F)cc1Cl (stereo partly drawn) [444(R)]	5 (Level 5: growth control rate is above 85%)	5 (Level 5: growth control rate is above 85%)	5 (Level 5: growth control rate is above 85%)	5 (Level 5: growth control rate is above 85%)	5 (Level 5: growth control rate is above 85%)	5 (Level 5: growth control rate is above 85%)	–	–	–	–	–	–	–
